Measurements reported in US20040043420A1, “Method of identifying conformation-sensitive binding peptides and uses thereof” (priority 2003, published 2004).

Key:
androgen receptor [1] = biological target: T1, androgen receptor (Homo sapiens, UniProt P10275); type: cell-based; design: expressed in transfected cells; settings: for Mammalian Cell Specificity Graph (FIG. 4): DHT: ligand DHT; for Mammalian Cell Specificity Graph (FIG. 4): MPA: ligand MPA; for Mammalian Cell Specificity Graph (FIG. 4): RU486: ligand RU486
T1 sequence (P10275 1-920): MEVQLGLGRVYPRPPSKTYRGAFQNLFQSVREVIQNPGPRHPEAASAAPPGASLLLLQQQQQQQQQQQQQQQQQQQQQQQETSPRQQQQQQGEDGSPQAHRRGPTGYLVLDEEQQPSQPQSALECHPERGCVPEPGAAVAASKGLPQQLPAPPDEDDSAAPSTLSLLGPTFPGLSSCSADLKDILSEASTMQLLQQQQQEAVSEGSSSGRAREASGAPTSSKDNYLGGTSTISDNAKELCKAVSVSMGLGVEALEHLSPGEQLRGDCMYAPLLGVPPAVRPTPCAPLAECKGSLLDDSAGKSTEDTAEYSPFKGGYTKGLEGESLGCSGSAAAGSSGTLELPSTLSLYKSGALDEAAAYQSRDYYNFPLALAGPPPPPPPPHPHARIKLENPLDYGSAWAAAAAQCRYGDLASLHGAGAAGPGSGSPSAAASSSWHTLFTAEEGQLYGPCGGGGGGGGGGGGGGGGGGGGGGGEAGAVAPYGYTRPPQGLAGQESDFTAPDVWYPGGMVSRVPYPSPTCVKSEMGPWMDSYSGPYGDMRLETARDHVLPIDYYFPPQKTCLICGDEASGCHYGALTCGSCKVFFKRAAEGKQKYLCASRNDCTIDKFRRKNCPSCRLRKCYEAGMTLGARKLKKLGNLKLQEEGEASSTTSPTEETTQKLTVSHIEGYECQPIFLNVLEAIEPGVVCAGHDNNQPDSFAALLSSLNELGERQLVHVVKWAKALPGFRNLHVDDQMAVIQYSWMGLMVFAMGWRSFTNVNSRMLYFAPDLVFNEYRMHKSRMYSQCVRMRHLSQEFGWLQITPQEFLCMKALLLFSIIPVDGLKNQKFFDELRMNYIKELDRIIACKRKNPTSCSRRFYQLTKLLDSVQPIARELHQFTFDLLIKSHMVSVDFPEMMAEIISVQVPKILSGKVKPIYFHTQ
Text: We used a mammalian two-hybrid system to determine specificities of the AR-binding peptides previously identified, through screening of the aforementioned yeast library, as ligand-dependent in their binding activity. Ligand was provided to the cells so the interaction could be observed. The human hepatoma cell line, Huh-7, was used as the recipient of two-hybrid vectors, pM and pVP16 (Clontech) (FIGS. 6A and 6B), containing fusions with peptide and AR, respectively. According to Clontech literature, the Clontech vectors pM and VP16 generate fusions of protein X with the GAL4 DNA-BD and fusions of protein Y with the VP16AD, in the Mammalian MM Two-Hybrid Assay Kit (#K1602-1). (Note: pM and VP16 contain unique cloning sites in the same order and reading frame as the DNA-BD and AD, respectively, vectors in the yeast […] Two-Hybrid Systems.) A third vector, pG5CAT, provides a CAT reporter gene under the control of a GAL4-responsive element and minimal promoter of the adenovirus E1b. The three vectors are cotransfected into any suitable mammalian host cell line by standard methods. The interaction between proteins X and Y is then assayed by measuring CAT gene expression by any standard method. In the absence-of activation (i.e., no protein-protein interaction), the minimal E1b promoter will not express significant levels of CAT.
Briefly, cells are seeded in a 24-well culture plate to a density of 50-80% confluence in phenol red-free media containing charcoal-dextran stripped fetal bovine serum (10%). Following incubation overnight, cells are transfected with plasmids pM-peptide, pVP16-AR, pCMV-b-gal, and p5XGAL-Luc3 DNAs using lipofectamine 2000 (LifeTech) according to the manufacturer's protocol. Transfections are allowed to proceed for 6 hours and the transfection media is aspirated and replaced with recovery media for 18 hours. Following the recovery period, cells are treated with compound for 24 hours prior to cell harvesting. Cells are washed with PBS and then lysed using the lysis buffer from the Galacto-Light Plus β-galactosidase assay kit (Tropix). Assays for luciferase and β-galactosidase were performed as described by the manufacturer. Peptide/AR interactions are described in terms of the luciferase activity normalized for transfection efficiency using β-galactosidase activity (see FIG. 4A). Two types of useful information arose from these methods: 1) we generated a panel of useful peptide probes to analyze the conformational state of AR, and 2) we “fingerprinted” AR modulators with respect to AR conformation (FIG. 4B). […] FIG. 4B is the converse of 4A. It compares the ability of six ligands (DHT, MPA, CYP, RU486, FLUT and DHEAs to interact with AR in the presence of each of four peptides (D30, 5G11, B8H3 and […]). Thus, it is a “fingerprint” of each of the six ligands using a four peptide panel. (Note that “1269” and D30″ refer to the same peptide.)

androgen receptor [2] = biological target: T1, androgen receptor; assay: Yeast two-hybrid screening of unbiased X15 peptide library, ligand-induced β-galactosidase activity (FIG. 3, Table 503); type: cell-based; design: expressed in transfected cells; host or cells: Saccharomyces cerevisiae PJ69-4α; settings: for Yeast Specificity Graph (FIG. 3): CPA: ligand CPA; for Yeast Specificity Graph (FIG. 3): DHT: ligand DHT; for Yeast Specificity Graph (FIG. 3): RU: ligand RU; for Yeast Specificity Graph (FIG. 3): No Lig: no ligand; for Yeast Specificity Graph (FIG. 3): MPA: ligand MPA; for Yeast Specificity Graph (FIG. 3): Test: ligand Test
Text: Our library contained predominantly 15 random amino acid residues/peptide in order to identify motifs that might interact with nuclear receptor domains. If ligand is provided to the cells, one can screen for peptides that interact with the ligand-bound receptor. […] Included at the ends of the oligonucleotide were the synthetic restriction endonuclease cleavage sites, EcoRI or Mfe I (5′ end) and Sal I (3′ end). Oligonucleotides were annealed, then cleaved with excess restriction endonuclease and purified on agarose gels. The purified set of oligonucleotides was subcloned as an in-frame carboxy-terminal fusion to a Gal4 DNA binding domain (plasmid vector pMA424 derivative). […] The transformation mix was divided and grown on plates of selective media containing ligand and 25 mM 3-aminotriazole at 30° C. until colonies appeared in 3-7 days. […] Dihydrotestosterone (DHT) and medroxyprogesterone (MPA) were added to the media at 100 nM to identify peptides that interact with the receptor in the presence of ligand. After colonies appeared they were picked and dispersed into individual wells of a 96-well plate containing rich media (YPD).
To determine ligand dependence, two microliter aliquots were removed from the cell suspension, and arrayed and spotted onto each of two rectangular agar plates, one with 100 nM ligand and one without ligand. Growth was monitored daily.
A secondary test of ligand dependent activation was performed using the integrated GAL4-driven lacZ gene. Cell suspensions of the initial positive clones were diluted 20-fold into 20 microliters of rich media in a microplate and grown overnight at 30° C. in the presence and absence of ligand. Microplates were centrifuged for 5 minutes at 3000 rpm in a swinging table top centrifuge to pellet the yeast cells, and the overlying media was aspirated. […] An OD650 density determination was made to normalize the β-galactosidase activity. β-galactosidase activity was monitored following the addition of buffer containing chlorophenol red-1-galactopyranoside (CPRG) (Boehringer Mannheim) substrate at a final concentration of 0.5 mM. […] The maximum slope value of this measurement was normalized to cell density from the initial OD650 value, and the relative ligand dependence of β-galactosidase was determined by comparing the values plus and minus ligand.
In FIG. 3, all of these ligands were tested. The plasmids from true positives were extracted using standard yeast extraction protocols and re-transformed to verify the positive phenotype.

Substance	Mammalian Cell Specificity Graph (FIG. 4): CYP. (androgen receptor [1]) [Relative Light Units]	Mammalian Cell Specificity Graph (FIG. 4): DHT (androgen receptor [1]) [Relative Light Units]	Mammalian Cell Specificity Graph (FIG. 4): MPA (androgen receptor [1]) [Relative Light Units]	Mammalian Cell Specificity Graph (FIG. 4): RU486 (androgen receptor [1]) [Relative Light Units]	Mammalian Cell Specificity Graph (FIG. 4): no compound (androgen receptor [1]) [Relative Light Units]	Yeast Specificity Graph (FIG. 3): CPA (androgen receptor [2])	Yeast Specificity Graph (FIG. 3): DHT (androgen receptor [2])	Yeast Specificity Graph (FIG. 3): RU (androgen receptor [2])	Yeast Specificity Graph (FIG. 3): No Lig (androgen receptor [2])	Fold induction (androgen receptor [2])	Yeast Specificity Graph (FIG. 3): MPA (androgen receptor [2])	Yeast Specificity Graph (FIG. 3): Test (androgen receptor [2])
EFRSSVFEQMYLCTGGSLDLOPS* [B5G11]	4.462	15.84	8.029	0.1051	0.05028	0.9726	3.964	0.9	0.6382			
EFRFPFHEMVREWESMGLERVRYAEP [M4D1]						−0.03955	0.3948	0.1	0		1.698	0.1337
EFRQSFVSEILGGGWLPLDLOPS [M2H3]						8.592	24.12	6.8	2.53	10	19.25	26.57
EFPELLAMTRWGRHAALLEPQRLPPPRTTTQPQTEFERMFFFTRPMRTTGLLDLOPS* [B2A7]						0.2919	1.719	0.5	0.3711			

Continued, in another order:

Mammalian Cell Specificity Graph (FIG. 4): CYP. (androgen receptor [1]) [Relative Light Units]	Mammalian Cell Specificity Graph (FIG. 4): DHT (androgen receptor [1]) [Relative Light Units]	Mammalian Cell Specificity Graph (FIG. 4): MPA (androgen receptor [1]) [Relative Light Units]	Mammalian Cell Specificity Graph (FIG. 4): RU486 (androgen receptor [1]) [Relative Light Units]	Mammalian Cell Specificity Graph (FIG. 4): no compound (androgen receptor [1]) [Relative Light Units]	Yeast Specificity Graph (FIG. 3): CPA (androgen receptor [2])	Yeast Specificity Graph (FIG. 3): DHT (androgen receptor [2])	Yeast Specificity Graph (FIG. 3): RU (androgen receptor [2])	Yeast Specificity Graph (FIG. 3): No Lig (androgen receptor [2])	Fold induction (androgen receptor [2])	Substance	Yeast Specificity Graph (FIG. 3): MPA (androgen receptor [2])	Yeast Specificity Graph (FIG. 3): Test (androgen receptor [2])
10.47	11.6	11.33	3.879	0.1316	0.3927	3.807	−0.0	0.1737	22	EFHSRLRVEVVSWGIGSTCSQANSGRISYDL* [B8H3]		
11.18	12.59	15.62	0.8461	0.03854						HPTHSSRLWELLMEATPTM [D30]		
					0.3955	0.6163	0.4	0.8753	1	EFVNWDAVVPWSELVALLDLOPS [B8A10]		
